Data taken from publication PMC9628870 (Journal of Microbiology and Biotechnology, 2022).

Biological target: T1, Burkholderia pseudomallei L-asparaginase (Burkholderia pseudomallei, UniProt Q63UZ6)
T1 construct: gene ansB
Details: 10 mM substrate, 50 mM Tris-HCl pH 8.6, 37 °C, 10 min

T1 sequence (Q63UZ6 1-347 limits assumed): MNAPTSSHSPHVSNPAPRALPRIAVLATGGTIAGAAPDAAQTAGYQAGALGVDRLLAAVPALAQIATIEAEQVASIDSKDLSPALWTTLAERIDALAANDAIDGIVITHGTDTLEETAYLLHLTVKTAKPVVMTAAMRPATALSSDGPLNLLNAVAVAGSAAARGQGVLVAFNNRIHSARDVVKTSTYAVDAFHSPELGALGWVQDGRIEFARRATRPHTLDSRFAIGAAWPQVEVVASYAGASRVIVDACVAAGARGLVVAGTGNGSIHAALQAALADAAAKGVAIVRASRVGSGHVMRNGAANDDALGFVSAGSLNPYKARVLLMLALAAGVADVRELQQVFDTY

NC(=O)C[C@H](N)C(=O)O [L-asparagine]
ammonia release by Nessler's reagent: the purified recombinant enzyme displayed the maximum activity and specificity towards the reaction substrate L-asparagine
